Source: US20250186751A1, “BREATH-POWERED NASAL DEVICES FOR TREATMENT OF TRAUMATIC BRAIN INJURY (TBI), INCLUDING CONCUSSION, AND METHODS AND METHODS” (Odyssey Health, Inc., priority 2021, published 2025)

Experiments:
[1] = preclinical studies of neuroprotective effects; assay type: in vivo; conditions: compared to related neurosteroids
Text: (§1) ent-19-norprogesterone is a fully synthetic, non-naturally, occurring neurosteroid.

[2] = test system: animal models of concussion; experiment: animal models of concussion; assay type: in vivo
Text: as §1

CC(=O)[C@@H]1CCC2C3CCC4=CC(=O)CC[C@H]4C3CC[C@]21C (single isomer, unassigned) [ent-19-norprogesterone, ent-19-norpregn-4-ene-3,20-dione]
neuroprotective effects [1]: equivalent, if not superior, neuroprotective effects compared to related neurosteroids
behavioral pathology associated with brain injury symptoms such as memory impairment, anxiety, and motor/sensory performance [2]: reduces the behavioral pathology
